From patent publication US6331547A, “Water soluble SDZ RAD esters” (American Home Products Corporation, priority 2000, dated 2001)
≈ marks a conversion by molar mass, not a printed value.

Columns and labels:
[1] = tested on: Candida albicans; details: particularly against Candida albicans, both in vitro and in vivo; cited from earlier work
[2] = tested on: experimental allergic encephalomyelitis model; details: model for multiple sclerosis; cited from earlier work
[3] = tested on: IgE-like antibodies; details: in vivo; cited from earlier work
[4] = alone; U.S. Pat. No. 4,885,171; cited from earlier work
[5] = tested on: U87MG Human Glioblastoma; assay: U87MG human glioblastoma 3H thymidine incorporation; type: cell-based
Experimental: U87MG Human Glioblastoma (ATCC # HTB-14)
3H Thymidine Incorporation Protocol
BRL Minimum Essential Medium with Earle Salts (500 ml)
+5 mLBRL MEM Non-Essential Amino Acids (10 mM)
+5 mLBRL Penicillin-Streptomycin
+5 mLBRL Na Pyruvate Solution (100 mM)
+5 mLBRL L-Glutamine 200 mM
+50 mLBRL Fetal Bovine Serum (Qualified)
1. Cells were trypsinized and plated at a concentration of 10^4 cells/well in a final volume of 200 μl growth medium in 96-well flat bottom plates and allowed to adhere for 24 hours at 37° C.
2. The media was removed by aspiration with care to not disturb the cell monolayer. 200 μl of fresh growth media was added per well, allowing enough wells for samples to be run in triplicate. Compounds were added in 10 μl PBS solutions and incubated for another 48 hours at 37° C.
3. During the last 5 hours of incubation, plates were labeled with 1 μCi 3H thymidine per well. (NEN thymidine, catalog # NET-027, 6.7 Ci/mmole). The 1 μCi was added in 10 μl of PBS (on the day of harvest.). The plates were returned to the incubator for the last 5 hours.
4. The radioactive media was removed by aspiration, with care not to disturb the cell monolayer. 50 μl of BRL 10×Trypsin was added to each well, followed by incubation at 37° C. for 10 minutes or until the monolayer was loosened from the well bottom. […] Mats were counted in a Wallac Betaplate counter.

[6] = tested on: adjuvant arthritis model; details: model for rheumatoid arthritis; cited from earlier work
[7] = U.S. Pat. No. 5,665,772; cited from earlier work

For `CO[C@H]1C[C@@H]2CC[C@@H](C)[C@@](O)(O2)C(=O)C(=O)N2CCCC[C@H]2C(=O)O[C@H]([C@H](C)C[C@@H]2CC[C@@H](O)[C@H](OC)C2)CC(=O)[C@H](C)/C=C(\C)[C@@H](O)[C@@H](OC)C(=O)[C@H](C)C[C@H](C)/C=C/C=C/C=C/1C` [Rapamycin], the antifungal activity [1] is given as “found to have antifungal activity”, the “effect in the experimental allergic encephalomyelitis model” value [2] is given as “effective” and the “inhibition of the formation of IgE-like antibodies” value [3] is given as “effectively inhibited”. The antitumor activity [4] was “shown to have antitumor activity”, the IC50 ([5]; Homo sapiens, U-87 MG) was 0.5 ng/mL (≈ 0.547 nM) and the “effect in the adjuvant arthritis model” value [6] was “effective”.

For `CO[C@H]1C[C@@H]2CC[C@@H](C)[C@@](O)(O2)C(=O)C(=O)N2CCCC[C@H]2C(=O)O[C@H]([C@H](C)C[C@@H]2CC[C@@H](OCCO)[C@H](OC)C2)CC(=O)[C@H](C)/C=C(\C)[C@@H](O)[C@@H](OC)C(=O)[C@H](C)C[C@H](C)/C=C/C=C/C=C/1C` [SDZ-RAD, 40-O-(2-hydroxy)ethyl-rapamycin], the “immunosuppressive activity in animal model” value [7] is listed as “has immunosuppressive activity” and the IC50 ([5]; 3H thymidine incorporation, 48 hours incubation, 37° C., U87MG) is listed as 2.0 ng/mL (≈ 2.09 nM).
